Source: patent US20170283440A1, “CARM1 INHIBITORS AND USES THEREOF” (Epizyme, Inc., priority 2014, published 2017)
Where two headings read alike, the source gives them in different places.

Tests used:
[1] = molecular target: T1, Human CARM1 (PRMT4) (Homo sapiens, UniProt Q86X55); assay: CARM1 enzyme assay on peptide substrate (3H-SAM Flashplate); format: biochemical; settings: CARM1 0.25 nM, 3H-SAM 30 nM, peptide 250 nM; read-out: Biochem IC50
T1 construct: Flag-CARM1-His was eluted with 200 ug/ml FLAG peptide in buffer A; made in house; host or cells: HEK 293F cells infected with recombinant baculovirus (pFastBacMam)
Outline: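 Flag-CARM1-His (isoform 1, Δ539-561; HEK293F-expressed), 0.25 nM, preincubated 30 min RT with compound, then 30 nM 3H-SAM and 250 nM biotinylated H3(16-30) R26me1 peptide in pH 7.6 Bicine buffer, 2% DMSO. Stopped with 300 uM cold SAM; streptavidin Flashplate capture, cpm. % inhibition vs DMSO/1 mM SAH, 3- or 4-parameter fit.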

[2] = tested on: asymmetric di-methyl PABP1 in RKO cells; assay: RKO methylation assay (In Cell Western for asymmetric di-methyl PABP1); format: cell-based; settings: 48 hours incubation, read-out: Cellular IC50
Outline: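 RKO cells treated 48 h at 37 °C, then fixed, methanol-permeabilized and probed for asymmetric di-methyl PABP1 (16 h, 4 °C) with DRAQ5 counterstain; 800/700 nm intensity ratio read.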

T1 sequence (Q86X55 other isoform, or with tags, fused parts or gaps): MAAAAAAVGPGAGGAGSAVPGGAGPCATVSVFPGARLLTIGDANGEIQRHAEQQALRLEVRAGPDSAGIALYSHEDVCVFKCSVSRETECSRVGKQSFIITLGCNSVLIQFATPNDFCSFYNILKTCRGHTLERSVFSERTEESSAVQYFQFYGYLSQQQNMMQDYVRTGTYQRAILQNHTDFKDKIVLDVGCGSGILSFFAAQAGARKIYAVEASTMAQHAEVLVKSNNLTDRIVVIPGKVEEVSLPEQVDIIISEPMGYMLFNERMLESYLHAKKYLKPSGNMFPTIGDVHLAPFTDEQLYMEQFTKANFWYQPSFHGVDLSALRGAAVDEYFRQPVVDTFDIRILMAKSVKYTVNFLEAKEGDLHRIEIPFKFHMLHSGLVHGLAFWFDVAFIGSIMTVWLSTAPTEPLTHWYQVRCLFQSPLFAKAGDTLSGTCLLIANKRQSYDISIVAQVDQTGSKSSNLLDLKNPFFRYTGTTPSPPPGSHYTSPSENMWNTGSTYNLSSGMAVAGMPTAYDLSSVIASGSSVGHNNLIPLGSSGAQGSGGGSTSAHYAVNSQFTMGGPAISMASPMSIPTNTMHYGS

SMILES | IC50 [1] | IC50 ([2]; Homo sapiens) | IC50 [2]
CNCC(O)COc1cccc(-c2nc(NCc3ccn(C)n3)c3cnn(C4CC4)c3n2)c1 (stereo not drawn) [Example 25-5] | 100 to 1000 nM | > 20000 nM | –
CNCC(O)COc1cc(OC)cc(-c2cc(N(C)CCOC)n3ncc(C(C)C)c3n2)c1 (stereo not drawn) [Example 25-6] | < 100 nM | > 20000 nM | –
Cc1cc(C)c(CNC(=O)c2cc(-c3cccc(OCC(O)CN)c3)nc3nn(C(C)C)cc23)c(=O)[nH]1 (stereo not drawn) [Example 29-9] | 100 to 1000 nM | > 20000 nM | –
CNCC(O)COc1cc(Cl)cc(-c2cc(N(C)CCOC)n3ncc(C(C)C)c3n2)c1 (stereo not drawn) [Example 30-6] | < 100 nM | > 20000 nM | –
CNCC(O)COc1cccc(-c2nc(NCc3cccc[n+]3[O-])c3cnn(C4CC4)c3n2)c1 (stereo not drawn) [Example 31-5] | 100 to 1000 nM | > 20000 nM | –
CNCC(O)COc1cc(OC)cc(-c2cc(Nc3ncccn3)n3ncc(C(C)C)c3n2)c1 (stereo not drawn) [Example 31-6] | < 100 nM | > 20000 nM | –
CNCC(O)COc1cccc(-c2nc(NCc3ccc[n+]([O-])c3)c3cnn(C4CC4)c3n2)c1 (stereo not drawn) [Example 32-5] | 100 to 1000 nM | > 20000 nM | –
CNCC(O)COc1cccc(-c2nc(NCc3ccccn3)c3cnn(C(C)(C)C)c3n2)c1 (stereo not drawn) [Example 33-5] | < 100 nM | > 20000 nM | –
CNCC(O)COc1cccc(-c2nc(NCc3cc(C)nn3C)c3cnn(C4CC4)c3n2)c1 (stereo not drawn) [Example 34-5] | < 100 nM | > 20000 nM | –
CNCC(O)COc1cc(OC)cc(-c2cc(N(C)[C@@H]3CCOC3)n3ncc(C(C)C)c3n2)c1 (stereo partly drawn) [Example 35-6] | < 100 nM | > 20000 nM | –
CNCC(O)COc1cc(OC)cc(-c2cc(N(C)[C@H]3CCOC3)n3ncc(C(C)C)c3n2)c1 (stereo partly drawn) [Example 36-6] | < 100 nM | > 20000 nM | –
NCC(O)COc1cccc(-c2nc(NCc3cccc4ccnn34)c3cnn(C4CC4)c3n2)c1 (stereo not drawn) [Example 37-5] | < 100 nM | > 20000 nM | –
CNCC(O)COc1cc(Cl)cc(-c2cc(NC3C4COCC43)n3ncc(C(C)C)c3n2)c1 (stereo not drawn) [Example 38-6] | 100 to 1000 nM | > 20000 nM | –
Cc1cccn2cc(CNc3nc(-c4cccc(OCC(O)CN)c4)nc4c3cnn4C3CC3)nc12 (stereo not drawn) [Example 41-5] | 100 to 1000 nM | > 20000 nM | –
CNCC(O)COc1cccc(-c2nc(NCc3c(C)cc(C)[nH]c3=O)c3cnn(C4CC4)c3n2)c1 (stereo not drawn) [Example 42-5] | 100 to 1000 nM | > 20000 nM | –
CNCC(O)COc1cccc(-c2nc(NCc3cn4ccsc4n3)c3cnn(C4CC4)c3n2)c1 (stereo not drawn) [Example 43-5] | < 100 nM | > 20000 nM | –
CNCC(O)COc1cccc(-c2nc(NCc3cn4cccc(C)c4n3)c3cnn(C4CC4)c3n2)c1 (stereo not drawn) [Example 44-5] | 100 to 1000 nM | 10000 to 20000 nM | –
CNCC(O)COc1cc(Cl)cc(-c2cc(N3C4CCC3COC4)n3ncc(C(C)C)c3n2)c1 (stereo not drawn) [Example 46-6] | < 100 nM | > 20000 nM | –
CNCC(O)COc1cc(OC)cc(-c2cc(N3CC(CO)(CCl)C3)n3ncc(C(C)C)c3n2)c1 (stereo not drawn) [Example 52-6] | < 100 nM | > 20000 nM | –
CNCC(O)COc1cc(Cl)cc(-c2cc(N3CC(CO)(CCl)C3)n3ncc(C(C)C)c3n2)c1 (stereo not drawn) [Example 53-6] | < 100 nM | > 20000 nM | –

More lines, now with the values ahead:

IC50 [1] | IC50 ([2]; Homo sapiens) | IC50 [2] | SMILES
< 100 nM | 10000 to 20000 nM | – | CNCC(O)COc1cc(OC)cc(-c2cc(N(C)C3CCOCC3)c3c(C)nn(C(C)C)c3n2)c1 (stereo not drawn) [Example 25-4]
100 to 1000 nM | > 20000 nM | – | CC(C)n1ncc2c(N3CCOCC3)cc(-c3cc(OC[C@H](O)CN)cc(OC[C@H](O)CN)c3)nc21 [Example 25-9]
100 to 1000 nM | > 20000 nM | – | CNCC(O)COc1cc(Cl)cc(-c2cc(N3CCOC3=O)n3ncc(C(C)C)c3n2)c1 (stereo not drawn) [Example 26-6]
100 to 1000 nM | > 20000 nM | – | CNCC(O)COc1cc(C#N)cc(-c2cc(N3CCOCC3)n3ncc(C(C)C)c3n2)c1 (stereo not drawn) [Example 26-9]
< 100 nM | > 20000 nM | – | CNCC(O)COc1cc(Cl)cc(-c2cc(N3CCOCC3)n3ncc(C(C)C)c3n2)c1 (stereo not drawn) [Example 27-6]
100 to 1000 nM | > 20000 nM | – | CNCC(O)COc1cccc(-c2cc(NS(=O)(=O)N(C)C)c3cnn(C(C)C)c3n2)c1 (stereo not drawn) [Example 27-9]
100 to 1000 nM | > 20000 nM | – | CNCC(O)COc1cc(OC(F)(F)F)cc(-c2cc(NC3CCOCC3)c3cnn(C(C)C)c3n2)c1 (stereo not drawn) [Example 28-4]
< 100 nM | > 20000 nM | – | CNCC(O)COc1cc(Cl)cc(-c2cc(NC3CCOC3)n3ncc(C(C)C)c3n2)c1 (stereo not drawn) [Example 28-6]
100 to 1000 nM | > 20000 nM | – | CC(C)n1ncc2c(N3CCOCC3)cc(-c3cccc(NCC(O)CN)c3)nc21 (stereo not drawn) [Example 28-9]
< 100 nM | > 20000 nM | – | CNCC(O)COc1cc(Cl)cc(-c2cc(N[C@@H]3CCOC3)n3ncc(C(C)C)c3n2)c1 (stereo partly drawn) [Example 29-6]
< 100 nM | 5000 to 10000 nM | – | CNCC(O)COc1cccc(-c2nc(NC3CCOCC3)c3cnn(C(C)(C)C)c3n2)c1 (stereo not drawn) [Example 30-5]
100 to 1000 nM | – | > 20000 nM | CC(C)n1ncc2c(N3CCOCC3)cc(-c3cccc(CCC(O)CN)c3)nc21 (stereo not drawn) [Example 31-9]
< 100 nM | > 20000 nM | – | CNCC(O)COc1cccc(-c2cc(N3CC4(CCOCC4)C3)n3ncc(C(C)C)c3n2)c1 (stereo not drawn) [Example 32-6]
100 to 1000 nM | > 20000 nM | – | C=Cc1cc(OCC(O)CNC)cc(-c2cc(NC3CCOCC3)n3ncc(C(C)C)c3n2)c1 (stereo not drawn) [Example 33-6]
< 100 nM | > 20000 nM | – | CNCC(O)COc1cc(OC)cc(-c2cc(NC3CCOCC3)n3ncc(C(C)C)c3n2)c1 (stereo not drawn) [Example 34-6]
< 100 nM | > 20000 nM | – | CNCC(O)COc1cccc(-c2nc(N(C)C3CCOCC3)c3cnn(C(C)(C)C)c3n2)c1 (stereo not drawn) [Example 36-5]
100 to 1000 nM | > 20000 nM | – | CNCC(O)COc1cc(OC)cc(-c2cc(N3CCC(O)CC3)n3ncc(C(C)C)c3n2)c1 (stereo not drawn) [Example 37-6]
100 to 1000 nM | > 20000 nM | – | Cc1cc(C)c(CNc2nc(-c3cccc(OCC(O)CN)c3)nc3c2cnn3C2CC2)c(=O)[nH]1 (stereo not drawn) [Example 38-5]
< 100 nM | 10000 to 20000 nM | – | NCC(O)COc1cccc(-c2nc(NCc3cn4ccsc4n3)c3cnn(C4CC4)c3n2)c1 (stereo not drawn) [Example 39-5]
< 100 nM | > 20000 nM | – | CNCC(O)COc1cc(Cl)cc(-c2cc(NC3CCOCC3)n3ncc(C(C)C)c3n2)c1 (stereo not drawn) [Example 39-6]
< 100 nM | > 20000 nM | – | CNCC(O)COc1cc(Cl)cc(-c2cc(N(C)[C@@H]3CCOC3)n3ncc(C(C)C)c3n2)c1 (stereo partly drawn) [Example 40-6]
< 100 nM | > 20000 nM | – | CNCC(O)COc1cc(Cl)cc(-c2cc(N(C)[C@H]3CCOC3)n3ncc(C(C)C)c3n2)c1 (stereo partly drawn) [Example 41-6]
100 to 1000 nM | > 20000 nM | – | CNCC(O)COc1cc(OC)cc(-c2cc(N3CC4CCC(C3)O4)n3ncc(C(C)C)c3n2)c1 (stereo not drawn) [Example 43-6]
< 100 nM | > 20000 nM | – | CNCC(O)COc1cc(Cl)cc(-c2cc(NC3CCOCC3)n3ncc(C(C)(C)C)c3n2)c1 (stereo not drawn) [Example 48-6]
100 to 1000 nM | > 20000 nM | – | CNCC(O)COc1cc(OC)cc(-c2cc(N3CC4(CCOCC4)C3)n3ncc(C(C)C)c3n2)c1 (stereo not drawn) [Example 49-6]
< 100 nM | > 20000 nM | – | CNCC(O)COc1cc(Cl)cc(-c2cc(N3CC4(CCOCC4)C3)n3ncc(C(C)C)c3n2)c1 (stereo not drawn) [Example 50-6]
100 to 1000 nM | 10000 to 20000 nM | – | CNCC(O)COc1cccc(-c2cc(NCCCCCNC(=O)c3ccn(C)n3)c3cnn(C(C)C)c3n2)c1 (stereo not drawn) [Example 64-1]
< 100 nM | > 20000 nM | – | CNCC(O)COc1cccc(-c2cc(NCCCCCCNC(=O)c3ccn(C)n3)c3cnn(C(C)C)c3n2)c1 (stereo not drawn) [Example 66-1]
